# Test results: publication PMC7226860 (ACS Omega, 2020)
# Key:
# E. coli (ATCC: 3008) [1] = assay: Agar well diffusion, inhibition zone; format: cell-based, Escherichia coli; conditions: for zone of inhibition at 15000 µg/mL: Escherichia coli, read-out: diameter of the inhibition zone; for diameter of the inhibition zone: E. coli (ATCC: 3008), Gram (−ve), agar well diffusion, 15 mg/mL, mean ± SD
# [2] = system: K. pneumonia (ATCC: 4415); assay: Agar well diffusion, inhibition zone; format: cell-based, Klebsiella pneumonia; conditions: for zone of inhibition at 15000 µg/mL: Klebsiella pneumoniae, read-out: diameter of the inhibition zone, K. pneumonia (ATCC: 4415), Gram (−ve), 15 mg/mL, mean ± SD; for diameter of the inhibition zone: K. pneumonia (ATCC: 4415), Gram (−ve), 15 mg/mL, mean ± SD
# [3] = system: P. aeruginosa (ATCC: 27853); assay: Agar well diffusion, inhibition zone; format: cell-based, Pseudomonas aeruginosa; conditions: for diameter of the inhibition zone: P. aeruginosa (ATCC: 27853), Gram (−ve), agar well diffusion, 15 mg/mL, mean ± SD
# S. aureus (ATCC: 6538) [4] = assay: Agar well diffusion, inhibition zone; format: cell-based, Staphylococcus aureus; conditions: for diameter of the inhibition zone: S. aureus (ATCC: 6538), Gram (+ve), agar well diffusion, 15 mg/mL, mean ± SD; for zone of inhibition at 15000 µg/mL: Staphylococcus aureus, read-out: diameter of the inhibition zone
# S. mutans (ATCC: 25175) [5] = assay: Agar well diffusion, inhibition zone; format: cell-based, Streptococcus mutans; conditions: for zone of inhibition at 15000 µg/mL: Streptococcus mutans, read-out: diameter of the inhibition zone; for diameter of the inhibition zone: S. mutans (ATCC: 25175), Gram (+ve), agar well diffusion, 15 mg/mL, mean ± SD
# [6] = system: C. albicans (ATCC: 10231); assay: Agar well diffusion, inhibition zone; format: cell-based, Candida albicans; conditions: for diameter of the inhibition zone: C. albicans (ATCC: 10231), fungi, 15 mg/mL, mean ± SD; for zone of inhibition at 15000 µg/mL: Candida albicans, read-out: diameter of the inhibition zone, C. albicans (ATCC: 10231), fungi, 15 mg/mL, mean ± SD
# E. coli (ATCC: 3008) [7] = assay: MIC, twofold serial dilution; format: cell-based; conditions: Escherichia coli, 24 h
# [8] = system: K. pneumonia (ATCC: 4415); assay: MIC, twofold serial dilution; format: cell-based; conditions: Klebsiella pneumoniae, 24 h, read after 24 h
# S. mutans (ATCC: 25175) [9] = assay: MIC, twofold serial dilution; format: cell-based; conditions: Streptococcus mutans, 24 h
# [10] = system: C. albicans (ATCC: 10231); assay: MIC, twofold serial dilution; format: cell-based, Candida albicans; conditions: Candida albicans, 24 h
# [11] = system: HFB4 human dermal fibroblast cell line; assay: MTT cytotoxicity assay; format: cell-based; conditions: 48 h
# human DHFR = molecular target: T1, human DHFR (Homo sapiens, UniProt P00374); assay: DHFR inhibitor screening kit; format: biochemical; conditions: for inhibition at 0.01 µg/mL / inhibition at 0.1 µg/mL / inhibition at 1 µg/mL / inhibition at 10 µg/mL: read-out: Inhibition of DHFR enzyme
# T1 sequence (P00374 1-187): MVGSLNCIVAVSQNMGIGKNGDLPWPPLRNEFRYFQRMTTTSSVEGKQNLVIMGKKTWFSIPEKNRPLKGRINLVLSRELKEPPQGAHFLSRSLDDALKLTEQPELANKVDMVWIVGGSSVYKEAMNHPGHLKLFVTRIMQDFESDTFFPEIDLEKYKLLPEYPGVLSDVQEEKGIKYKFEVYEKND
# [12] = system: P. aeruginosa (ATCC: 27853); assay: MIC, twofold serial dilution; format: cell-based; conditions: Pseudomonas aeruginosa, 24 h
# S. aureus (ATCC: 6538) [13] = assay: MIC, twofold serial dilution; format: cell-based; conditions: Staphylococcus aureus, 24 h
Compound,zone of inhibition at 15000 µg/mL (E. coli (ATCC: 3008) [1]),zone of inhibition at 15000 µg/mL [2],diameter of the inhibition zone [3],diameter of the inhibition zone (S. aureus (ATCC: 6538) [4]),zone of inhibition at 15000 µg/mL (S. mutans (ATCC: 25175) [5]),diameter of the inhibition zone [6],zone of inhibition at 15000 µg/mL [6],MIC (E. coli (ATCC: 3008) [7]),MIC [8],MIC (S. mutans (ATCC: 25175) [9]),MIC [10],IC50 [11],IC50 (human DHFR),inhibition at 0.01 µg/mL (human DHFR),inhibition at 0.1 µg/mL (human DHFR),inhibition at 1 µg/mL (human DHFR),inhibition at 10 µg/mL (human DHFR),zone of inhibition at 15000 µg/mL (S. aureus (ATCC: 6538) [4]),MIC (S. aureus (ATCC: 6538) [13]),diameter of the inhibition zone (E. coli (ATCC: 3008) [1]),further results
"CSc1c(C#N)c(N)n(NS(=O)(=O)c2ccccc2)c(=O)c1-c1nc2ccccc2s1 [compound 5a, N-(6-Amino-3-(benzo[d]thiazol-2-yl)-5-cyano-4-(methylthio)-2-oxopyridin-1(2H)-yl)benzenesulfonamide]",26 ± 0.5 mm,20.6 ± 1 mm,−,−,17.6 ± 1.5 mm,21.0 ± 1.0 mm,21 to 28 mm,62.5 µg/mL,1000 µg/mL,1000 µg/mL,62.5 µg/mL,167 ± 21.8 µg/mL,554 nM,30%,41.8%,57.3%,75.9%,,,,
"CSc1c(C#N)c(N)n(NS(=O)(=O)c2ccc(C)cc2)c(=O)c1-c1nc2ccccc2s1 [compound 5b, N-(6-Amino-3-(benzo[d]thiazol-2-yl)-5-cyano-4-(methylthio)-2-oxopyridin-1(2H)-yl)-4-methylbenzenesulfonamide]",21.3 ± 3 mm,25.6 ± 1.1 mm,,,18.6 ± 1 mm,−,,125 µg/mL,1000 µg/mL,1000 µg/mL,,146 ± 27 µg/mL,620 nM,19.8%,37.4%,65%,79.4%,30.3 ± 0.5 mm,250 µg/mL,,"zone of inhibition at 15000 µg/mL ([3]; Pseudomonas aeruginosa, read-out: diameter of the inhibition zone): 23.3 ± 0.5 mm; MIC [12]: 1000 µg/mL"
"COc1ccc(NC(=O)c2c(SC)c(-c3nc4ccccc4s3)c(=O)n(NS(=O)(=O)c3ccccc3)c2N)cc1 [compound 9e, 2-Amino-5-(benzo[d]thiazol-2-yl)-N-(4-methoxyphenyl)-4-(methylthio)-6-oxo-1-(phenylsulfonamido)-1,6-dihydropyridine-3-carboxamide]",,,−,,,−,,,,,,,,,,,,19.6 ± 1 mm,,−,diameter of the inhibition zone [2]: no activity and −; diameter of the inhibition zone (S. mutans (ATCC: 25175) [5]): −
"COc1ccc(NC(=O)c2c(SC)c(-c3nc4ccccc4s3)c(=O)n(NS(=O)(=O)c3ccc(C)cc3)c2N)cc1 [compound 9f, 2-Amino-5-(benzo[d]thiazol-2-yl)-N-(4-methoxyphenyl)-1-(4-methylphenylsulfonamido)-4-(methylthio)-6-oxo-1,6-dihydropyridine-3-carboxamide]",,29 mm,−,−,,−,,,,,,,,,,,,,,−,diameter of the inhibition zone [2]: 29.6 ± 1.5 mm; diameter of the inhibition zone (S. mutans (ATCC: 25175) [5]): −
"Nc1n[nH]c2c(-c3nc4ccccc4s3)c(=O)n(NS(=O)(=O)c3ccccc3)c(N)c12 [compound 11a, N-(3,4-Diamino-7-(benzo[d]thiazol-2-yl)-6-oxo-1H-pyrazolo[4,3-c]pyridin-5(6H)-yl)benzenesulfonamide]",26 ± 0.5 mm,15.2 ± 0.5 mm,−,,22.3 ± 0.5 mm,21.0 ± 1.7 mm,21 to 28 mm,31.2 µg/mL,125 µg/mL,1000 µg/mL,125 µg/mL,234 ± 20.7 µg/mL,441 nM,29.6%,44.1%,67%,71.8%,35.2 ± 1.5 mm,31.2 µg/mL,,
"Cc1ccc(S(=O)(=O)Nn2c(N)c3c(N)n[nH]c3c(-c3nc4ccccc4s3)c2=O)cc1 [compound 11b, N-(3,4-Diamino-7-(benzo[d]thiazol-2-yl)-6-oxo-1H-pyrazolo[4,3-c]pyridin-5(6H)-yl)-4-methylbenzenesulfonamide]",26 ± 1 mm,17.5 ± 0.5 mm,−,,21 ± 1 mm,no potency and −,,31.2 µg/mL,125 µg/mL,500 µg/mL,,295 ± 19.1 µg/mL,11800 nM,12.4%,19.3%,31.2%,60.1%,25.2 ± 1 mm,500 µg/mL,26.0 ± 1.0 mm,
